In test [1] the test system is VCaP cells. Briefly: VCaP growth inhibition assay (CTG). Type of test: cell-based. The conditions noted are these: Homo sapiens, 216 h, 30 pM R1881, 9 days. In outline:
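Growth was measured by CTG luminescence after a 9-day exposure of VCaP cells to compound (final 10 fM–100 nM, fivefold steps) in the presence of 30 pM final R1881, in phenol red-free DMEM/5% CSS. IC50 values were derived by nonlinear 4-parameter regression of RLU against concentration.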

Test [2] concerns the target AR / CBP ternary complex (Homo sapiens, UniProt P10275+Q92793). Briefly: Ternary complex formation assay (sandwich ELISA, AR capture, CBP antibody detection) in VCaP cell lysates. The conditions noted are these: treated 1.5 hours, rabbit CBP or p300 antibody detection, average, read-out: Average Ternary Complex. Type of test: cell-based. In outline:
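Sandwich ELISA: plates were coated with anti-AR antibody (AR441) and given lysates of VCaP cells treated 1.5 h with bifunctional compound in charcoal-stripped serum. Co-captured CBP or p300 was probed with rabbit mAbs and HRP secondary. Chemifluorescent signal (ex 570/em 585) was read at 0, 5 and 15 min.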

AR / CBP ternary complex, sequence (P10275 whole entry): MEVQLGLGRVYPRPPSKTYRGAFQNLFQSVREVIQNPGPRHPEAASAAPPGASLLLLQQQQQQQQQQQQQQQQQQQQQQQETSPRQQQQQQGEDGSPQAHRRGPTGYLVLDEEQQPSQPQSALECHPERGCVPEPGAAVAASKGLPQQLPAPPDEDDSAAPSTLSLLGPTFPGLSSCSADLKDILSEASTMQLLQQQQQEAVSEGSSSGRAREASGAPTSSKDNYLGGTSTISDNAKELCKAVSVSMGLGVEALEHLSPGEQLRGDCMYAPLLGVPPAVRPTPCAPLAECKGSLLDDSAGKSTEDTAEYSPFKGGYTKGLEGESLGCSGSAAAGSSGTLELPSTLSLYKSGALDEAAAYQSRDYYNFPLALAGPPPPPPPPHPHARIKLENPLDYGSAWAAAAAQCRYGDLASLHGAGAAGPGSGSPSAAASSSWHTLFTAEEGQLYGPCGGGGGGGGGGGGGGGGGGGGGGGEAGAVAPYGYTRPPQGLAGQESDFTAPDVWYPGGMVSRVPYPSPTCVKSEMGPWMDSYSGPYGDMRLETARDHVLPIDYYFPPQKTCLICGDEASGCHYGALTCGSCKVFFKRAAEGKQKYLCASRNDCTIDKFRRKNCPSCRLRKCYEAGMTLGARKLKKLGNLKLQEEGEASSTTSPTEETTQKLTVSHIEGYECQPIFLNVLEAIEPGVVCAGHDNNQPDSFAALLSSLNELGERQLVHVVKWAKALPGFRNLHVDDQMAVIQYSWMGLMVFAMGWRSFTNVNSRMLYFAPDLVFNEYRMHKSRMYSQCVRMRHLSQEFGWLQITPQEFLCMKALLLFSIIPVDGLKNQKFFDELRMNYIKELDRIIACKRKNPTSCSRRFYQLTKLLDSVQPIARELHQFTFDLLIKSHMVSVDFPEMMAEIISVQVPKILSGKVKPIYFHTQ
AR / CBP ternary complex, sequence (Q92793 2-2442): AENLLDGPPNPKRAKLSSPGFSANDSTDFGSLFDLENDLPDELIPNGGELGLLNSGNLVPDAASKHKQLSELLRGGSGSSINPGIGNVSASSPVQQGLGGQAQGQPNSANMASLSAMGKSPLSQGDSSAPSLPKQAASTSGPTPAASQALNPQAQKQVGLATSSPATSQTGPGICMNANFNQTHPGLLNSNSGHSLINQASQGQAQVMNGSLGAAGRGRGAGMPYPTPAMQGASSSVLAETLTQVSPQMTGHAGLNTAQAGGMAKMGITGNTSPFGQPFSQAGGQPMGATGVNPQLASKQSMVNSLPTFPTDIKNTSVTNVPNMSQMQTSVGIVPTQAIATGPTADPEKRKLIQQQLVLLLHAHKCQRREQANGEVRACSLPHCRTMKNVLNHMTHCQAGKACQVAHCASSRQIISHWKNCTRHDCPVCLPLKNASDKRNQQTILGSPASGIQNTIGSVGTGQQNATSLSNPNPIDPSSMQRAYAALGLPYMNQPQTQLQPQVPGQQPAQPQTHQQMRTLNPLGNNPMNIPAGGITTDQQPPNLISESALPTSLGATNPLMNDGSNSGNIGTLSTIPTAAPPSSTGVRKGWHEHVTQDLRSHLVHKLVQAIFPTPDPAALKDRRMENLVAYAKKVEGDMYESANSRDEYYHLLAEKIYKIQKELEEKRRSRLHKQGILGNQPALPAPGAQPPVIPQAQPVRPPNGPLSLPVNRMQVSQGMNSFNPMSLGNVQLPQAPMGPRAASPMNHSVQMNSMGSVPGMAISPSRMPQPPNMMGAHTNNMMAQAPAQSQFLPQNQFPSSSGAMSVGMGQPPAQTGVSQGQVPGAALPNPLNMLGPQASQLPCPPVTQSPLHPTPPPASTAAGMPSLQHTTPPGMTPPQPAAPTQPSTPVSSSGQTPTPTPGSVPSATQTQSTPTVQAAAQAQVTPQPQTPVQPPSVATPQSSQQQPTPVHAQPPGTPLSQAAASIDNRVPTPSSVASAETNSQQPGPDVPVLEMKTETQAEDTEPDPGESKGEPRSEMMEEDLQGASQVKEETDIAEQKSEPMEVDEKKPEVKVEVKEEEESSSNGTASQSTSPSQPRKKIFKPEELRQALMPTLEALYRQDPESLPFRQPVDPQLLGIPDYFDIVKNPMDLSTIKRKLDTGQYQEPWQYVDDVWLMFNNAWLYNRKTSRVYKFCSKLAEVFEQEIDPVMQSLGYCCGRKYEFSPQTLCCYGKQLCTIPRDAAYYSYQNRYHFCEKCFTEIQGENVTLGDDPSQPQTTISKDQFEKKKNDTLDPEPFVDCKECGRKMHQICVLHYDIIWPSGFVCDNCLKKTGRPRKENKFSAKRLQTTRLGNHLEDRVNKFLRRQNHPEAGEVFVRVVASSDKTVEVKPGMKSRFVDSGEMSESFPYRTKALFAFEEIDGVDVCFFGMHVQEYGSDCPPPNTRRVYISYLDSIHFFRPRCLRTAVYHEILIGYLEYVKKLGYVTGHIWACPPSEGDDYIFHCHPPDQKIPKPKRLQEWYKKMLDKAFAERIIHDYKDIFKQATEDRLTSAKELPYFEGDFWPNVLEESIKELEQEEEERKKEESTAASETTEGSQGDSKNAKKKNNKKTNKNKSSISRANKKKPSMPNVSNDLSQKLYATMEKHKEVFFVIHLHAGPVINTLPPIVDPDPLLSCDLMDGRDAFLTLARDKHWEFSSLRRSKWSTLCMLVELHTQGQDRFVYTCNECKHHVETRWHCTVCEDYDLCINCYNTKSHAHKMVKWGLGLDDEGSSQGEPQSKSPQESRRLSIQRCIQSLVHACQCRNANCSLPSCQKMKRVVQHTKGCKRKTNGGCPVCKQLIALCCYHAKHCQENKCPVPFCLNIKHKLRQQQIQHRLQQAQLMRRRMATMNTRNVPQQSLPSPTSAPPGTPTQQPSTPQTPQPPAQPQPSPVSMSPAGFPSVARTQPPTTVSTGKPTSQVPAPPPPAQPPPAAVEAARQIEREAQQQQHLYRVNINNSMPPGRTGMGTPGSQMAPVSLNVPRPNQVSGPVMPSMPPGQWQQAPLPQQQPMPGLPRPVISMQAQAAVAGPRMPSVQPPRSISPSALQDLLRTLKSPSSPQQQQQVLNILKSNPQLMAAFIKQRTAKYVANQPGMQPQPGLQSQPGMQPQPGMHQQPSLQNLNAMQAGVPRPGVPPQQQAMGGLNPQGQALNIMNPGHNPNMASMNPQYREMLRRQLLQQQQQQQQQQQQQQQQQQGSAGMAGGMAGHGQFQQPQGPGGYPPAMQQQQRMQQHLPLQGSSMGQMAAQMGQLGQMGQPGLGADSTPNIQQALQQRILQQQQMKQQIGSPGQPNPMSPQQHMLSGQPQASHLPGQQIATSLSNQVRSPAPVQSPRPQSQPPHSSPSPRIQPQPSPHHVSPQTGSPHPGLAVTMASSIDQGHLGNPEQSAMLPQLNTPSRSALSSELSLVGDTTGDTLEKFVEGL

As to `COc1cc(O[C@H]2CC[C@H](NC(=O)c3ccc(N4CCC(C(=O)N5CCC(n6nc(N7CCCc8cc(-c9cnn(C)c9)c(C(F)F)cc87)c7c6CCN(C(C)=O)C7)CC5)CC4)cc3)CC2)ccc1C#N` [Compound 160, 4-[4-[4-[5-acetyl-3-[7-(difluoromethyl)-6-(1-methylpyrazol-4-yl)-3,4-dihydro-2H-quinolin-1-yl]-6,7-dihydro-4H-pyrazolo[4,3-c]pyridin-1-yl]piperidine-1-carbonyl]-1-piperidyl]-N-[4-(4-cyano-3-methoxy-phenoxy)cyclohexyl]benzamide], in test [1], the IC50 was no more than 0.1 nM. Moreover, the EC50 in test [2] is less than 1 nM.
The like results for `CC(=O)N1CCc2c(c(N3CCCc4cc(-c5cnn(C)c5)c(C(F)F)cc43)nn2C2CCN(C[C@H]3CCN(c4ccc(C(=O)N[C@H]5CC[C@H](Oc6ccc(C#N)c(Cl)c6)CC5)nn4)C[C@@H]3C)CC2)C1` [Compound 104, 6-[4-[[4-[5-acetyl-3-[7-(difluoromethyl)-6-(1-methylpyrazol-4-yl)-3,4-dihydro-2H-quinolin-1-yl]-6,7-dihydro-4H-pyrazolo[4,3-c]pyridin-1-yl]-1-piperidyl]methyl]-3-methyl-1-piperidyl]-N-[4-(3-chloro-4-cyano-phenoxy)cyclohexyl]pyridazine-3-carboxamide] were, in that order, no more than 0.1 nM and less than 1 nM.
The like results for `CC(=O)N1CCc2c(c(N3CCCc4cc(-c5cnn(C)c5)c(C(F)F)cc43)nn2C2CCN(C3(C)CCN(c4ccc(C(=O)N[C@H]5CC[C@H](Oc6ccc(C#N)c(Cl)c6)CC5)nn4)CC3)CC2)C1` [Compound 201, 6-[4-[4-[5-acetyl-3-[7-(difluoromethyl)-6-(1-methylpyrazol-4-yl)-3,4-dihydro-2H-quinolin-1-yl]-6,7-dihydro-4H-pyrazolo[4,3-c]pyridin-1-yl]-1-piperidyl]-4-methyl-1-piperidyl]-N-[4-(3-chloro-4-cyano-phenoxy)cyclohexyl]pyridazine-3-carboxamide] were, in that order, no more than 0.1 nM and less than 1 nM.
For `CC(=O)N1CCc2c(c(-c3cccc4cc(-c5cnn([C@H]6CC[C@H](C7CCN(c8ccc(C(=O)N[C@H]9CC[C@H](Oc%10ccc(C#N)c(Cl)c%10)CC9)nn8)CC7)CC6)c5)ncc34)nn2C2CCOCC2)C1` [Compound 184] the same measures were 1 to 100 nM and 1 to 10 nM.
Molecule `CC(=O)N1CCc2c(c(N3CCCc4cc(-c5cnn(C)c5)c(C(F)F)cc43)nn2C2CCC3(CC2)CC(Oc2ccc(C(=O)N[C@H]4CC[C@H](Oc5ccc(C#N)c(C(F)(F)F)c5)CC4)nn2)C3)C1` (stereo partly shown) [Compound 246, 6-[7-[5-acetyl-3-[7-(difluoromethyl)-6-(1-methylpyrazol-4-yl)-3,4-dihydro-2H-quinolin-1-yl]-6,7-dihydro-4H-pyrazolo[4,3-c]pyridin-1-yl]spiro[3.5]nonan-2-yl]oxy-N-[4-[4-cyano-3-(trifluoromethyl)phenoxy]cyclohexyl]pyridazine-3-carboxamide] showed an IC50 in test [1] of 1 to 100 nM. Also, the EC50 in test [2] was less than 1 nM.
In the case of `Cn1cc(-c2cc3c(cc2C(F)F)N(c2cc(C4=CCN(CC5CCN(c6ccc(C(=O)N[C@H]7CC[C@H](Oc8ccc(C#N)c(Cl)c8)CC7)nn6)CC5)CC4)c4c(c2)n(C)c(=O)n4C)CCC3)cn1` [Compound 148], the IC50 in test [1] fell in the range of 0.1 to 1 nM. Besides, in test [2], the EC50 was less than 1 nM.
For `CC(=O)N1CCc2c(c(N3CCCc4cc(-c5cnn(C)c5)c(C(F)F)cc43)nn2C2CCN([C@@H]3CCN(c4ccc(C(=O)N[C@H]5CC[C@H](Oc6ccc(C#N)c(Cl)c6)CC5)nn4)C[C@@H]3C)CC2)C1` [Compound 200] the same measures were no more than 0.1 nM and less than 1 nM.
For `CC(=O)N1CCc2c(c(N3CCCc4cc(-c5cnn(C)c5)c(C(F)F)cc43)nn2[C@H]2CC[C@H](N3CCC4(CC3)CC(Oc3ccc(C(=O)N[C@H]5CC[C@H](Oc6ccc(C#N)c(Cl)c6)CC5)nn3)C4)CC2)C1` [Compound 248] the same measures were 0.1 to 1 nM and less than 1 nM.
For the molecule `CC(=O)N1CCc2c(c(N3CCCc4cc(-c5cnn(C)c5)c(C(F)F)cc43)nn2C2CCN(CC3C(C)CN(c4ccc(C(=O)N[C@H]5CC[C@H](Oc6ccc(C#N)c(Cl)c6)CC5)nn4)CC3C)CC2)C1` (stereo partly shown) [Compound 217, 6-[4-[[4-[5-acetyl-3-[7-(difluoromethyl)-6-(1-methylpyrazol-4-yl)-3,4-dihydro-2H-quinolin-1-yl]-6,7-dihydro-4H-pyrazolo[4,3-c]pyridin-1-yl]-1-piperidyl]methyl]-3,5-dimethyl-1-piperidyl]-N-[4-(3-chloro-4-cyano-phenoxy)cyclohexyl]pyridazine-3-carboxamide], the IC50 in test [1] was no more than 0.1 nM. In addition, the EC50 in test [2] was less than 1 nM.
For `CC(=O)N1CCc2c(c(-c3cccc4cc(-c5cnn(CCC6CCN(c7ccc(C(=O)N[C@H]8CC[C@H](Oc9ccc(C#N)c(Cl)c9)CC8)nn7)CC6)c5)ncc34)nn2C2CCC2)C1` [Compound 83, 6-[4-[2-[4-[8-(5-acetyl-1-cyclobutyl-6,7-dihydro-4H-pyrazolo[4,3-c]pyridin-3-yl)-3-isoquinolyl]pyrazol-1-yl]ethyl]-1-piperidyl]-N-[4-(3-chloro-4-cyanophenoxy)cyclohexyl]pyridazine-3-carboxamide] the same measures were 0.1 to 1 nM and less than 1 nM.
Consider `Cn1c(=O)n(C)c2cc(N3CCCc4cc(-c5ccc(CCC6CCN(c7ccc(C(=O)N[C@H]8CC[C@H](Oc9ccc(C#N)c(Cl)c9)CC8)nn7)CC6)nc5)ncc43)ccc21` [Compound 54, N-[4-(3-chloro-4-cyano-phenoxy)cyclohexyl]-6-[4-[2-[5-[1-(1,3-dimethyl-2-oxo-benzimidazol-5-yl)-3,4-dihydro-2H-1,7-naphthyridin-6-yl]-2-pyridyl]ethyl]-1-piperidyl] pyridazine-3-carboxamide], for which the IC50 in test [1] lay in the range of 0.1 to 1 nM. In addition, the EC50 in test [2] is 1 to 10 nM.
In turn, `Cc1cc2c(N3CCN(C)c4cc(-c5cnn(C)c5)c(C#N)cc43)cc(OCCC3CCN(c4ccc(C(=O)N[C@H]5CC[C@H](Oc6ccc(C#N)c(Cl)c6)CC5)nn4)CC3)cc2n(C)c1=O` [Compound 38, N-[4-(3-chloro-4-cyano-phenoxy)cyclohexyl]-6-[4-[2-[[5-[7-cyano-4-methyl-6-(1-methylpyrazol-4-yl)-2,3-dihydroquinoxalin-1-yl]-1,3-dimethyl-2-oxo-7-quinolyl]oxy]ethyl]-1-piperidyl]pyridazine-3-carboxamide] came in with an IC50 in test [1] of 0.1 to 1 nM. In test [2], the EC50 is greater than 100 nM.
For `CC(=O)N1CCc2c(c(N3CCCc4cc(-c5cnn(C)c5)c(C)cc43)nn2C2CCN(CC3CCN(c4ccc(C(=O)N[C@H]5CC[C@H](Oc6ccc(C#N)c(C)c6)CC5)nn4)CC3(C)C)CC2)C1` (stereo partly shown) [Compound 293, 6-[4-[[4-[5-acetyl-3-[7-methyl-6-(1-methylpyrazol-4-yl)-3,4-dihydro-2H-quinolin-1-yl]-6,7-dihydro-4H-pyrazolo[4,3-c]pyridin-1-yl]-1-piperidyl]methyl]-3,3-dimethyl-1-piperidyl]-N-[4-(4-cyano-3-methyl-phenoxy)cyclohexyl]pyridazine-3-carboxamide] the same measures were no more than 0.1 nM and less than 1 nM.
The like results for `CC(=O)N1CCc2c(c(N3CCCc4cc(-c5cnn(C)c5)c(C(F)F)cc43)nn2C2CCN(C[C@H]3CCN(c4ccc(C(=O)N[C@H]5CC[C@H](Oc6ccc(C#N)c(Cl)c6)CC5)nn4)C[C@H]3C)CC2)C1` [Compound 234] were, in that order, no more than 0.1 nM and less than 1 nM.

(Values after patent US20250136578A1 (Kolm Therapeutics Inc., priority 2023, published 2025).)
